Test results as given in patent US20030032078A1, “Methods and compositions for the treatment of macular and retinal degenerations” (Board of Regents, The University of Texas System, priority 2001, published 2003).
Entries after “also recorded” stand apart in the source; their conditions may differ. Like-named read-outs stand apart in the source and are kept apart here.

Legend:
[1] = tested on: patients with neovascularisation extending under the center of the retina; settings: cited from earlier work
[2] = tested on: microsomal membranes prepared from bovine RPE; assay: Retinyl ester formation and isomerization from [3H]retinols in microsomal membranes from bovine RPE; type: biochemical
Description: The retinyl-ester content of fresh bovine ocular tissues were analyzed. Bovine RPE contained approximately 95% all-trans-retinyl esters (atRE) and 5% 1cRE. No retinyl esters were detectable in bovine retinas. When [^3H]atROL was added to microsomal membranes prepared from bovine RPE, the formation of [3H]atRE, and subsequent formation of [^3H]11cROL were observed. […] The isomeric inhibitor, 11-cis-retinyl α-bromoacetate (cRBA) was also synthesized. This agent suppressed the formation of [^3H]11cRE from [^3H]11cROL added to bovine-RPE membranes, but had no effect on the synthesis of [^3H]atRE or [^3H]11cROL from added [^3H]atROL. No ester-synthase activity was detected in bovine retinas. The results of these studies on rod-dominant bovine eyes are in full accord with the published results of other investigators (Rando et al., 1992; Saari et al., 1994; Crouch et al., 1996; Trehan et al., 1990).

[3] = tested on: membranes from chicken and ground squirrel retinas; assay: Retinyl ester formation and isomerization from [3H]atROL in membranes from chicken and ground squirrel retinas; type: biochemical; settings: chicken and ground squirrel retina membranes
Excerpt: There are striking differences in retinyl-ester content and retinoid turnover upon analysis of ocular tissues from cone-dominant ground squirrel and chicken. Chicken retinas contained 60% 11cRE and 40% atRE, while ground-squirrel retinas contained 80% 11cRE and 20% atRE. The ratio of cones to rods is 60:40 in chicken (Meyer et al., 1973), 96:4 in ground squirrel (West et al., 1975), 3:97 in mouse (Carter-Dawson et al., 1979), and 8:92 in bovine retina (Krebs et al., 1982). Thus, across multiple species, the level of 11cRE in retina is loosely correlated with the ratio of cone to rod photoreceptors. […] During time-course studies, [^3H]11cROL always preceded the appearance of [3H]11cRE. […] In particular, this new all-trans-retinol isomerase (atRI) is insensitive to tRBA. This insensitivity rules out the trivial explanation of RPE contamination in retinal membrane preparations. […] Unlike LRAT, this new ester synthase is not inhibited by tRBA or cRBA, and has high specificity for the 11cROL substrate.

LRAT = target: T1, LRAT (Bos taurus, UniProt Q9BGL2); settings: Trehan et al., 1990; cited from earlier work
T1 construct: microsomal membranes prepared from bovine RPE; from tissue; host or cells: bovine retinal pigment epithelium, microsomal membranes
T1 sequence (Q9BGL2 1-230): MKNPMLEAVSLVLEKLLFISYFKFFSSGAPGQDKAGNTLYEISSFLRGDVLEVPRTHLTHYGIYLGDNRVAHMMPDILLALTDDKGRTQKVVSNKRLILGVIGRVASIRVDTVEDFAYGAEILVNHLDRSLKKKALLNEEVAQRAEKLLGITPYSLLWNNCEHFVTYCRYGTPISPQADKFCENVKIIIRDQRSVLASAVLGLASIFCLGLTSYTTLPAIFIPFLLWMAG

abcr−/− mice = assay: A2E and A2PE-H2 levels in ocular tissues of abcr−/− mice treated with isotretinoin (HPLC); type: in vivo, mouse
Description: FIG. 7—A2E and A2PE-H2 in abcr−/− ocular tissues following treatment with isotretinoin. A2E and A2PE-H2 were extracted from the indicated tissues and analyzed by HPLC as previously described (Mata et al., 2000; Weng et al., 1999). (FIG. 7A) A2E levels in abcr−/− RPE from four-month-old mice treated for one month with isotretinoin at 40 mg/kg/day (4-mo 13cRA), four-month-old mice treated with DMSO carrier alone (4-mo DMSO), and three-month-old untreated mice (3-mo untreated). (FIG. 7B) A2PE-H2 levels in abcr−/− RPE from the same animals in panel (A) plus four-month-old untreated mice (4-mo untreated). (FIG. 7C) A2PE-H2 levels in abcr−/− retinas from the same animals in panel (B). All data are shown as milliabsorption units (mAU) at the indicated wavelengths±SEM (n=3).
Tissue Preparation and Extraction. Mouse and human tissues were homogenized in 1 ml of PBS. For analysis of mouse outer segments, dissected retinas were shaken on a vortex mixer in 8% Optiprep/Ringer's buffer and fractionated by centrifugation through an Optiprep step-gradient according to the procedure of Tsang et al. (1998). Collected outer segments were suspended in 1 ml PBS and homogenized. 1 ml of chloroform/methanol (2:1, v/v) was added to each homogenate. Phospholipids and chloroform-soluble fluorophores were extracted twice from the samples following addition of 4 ml of chloroform and 3 ml water. The pooled organic phases were dried under a stream of argon. Sample residues were resuspended in 200- 400 μl of hexane, and analyzed by HPLC.
Sample extracts were analyzed by normal phase HPLC using an HP 1100 liquid chromatograph with a photodiode array detector. Chromatography conditions were as previously described (Birnbach et al., 1994) using a silica column (Microsorb 5 μm Si, 250×4.6 mm) and the mobile phase: hexane/2-propanol/ethanol/25 mM potassium phosphate/acetic acid (485:376:100:40:0.275, v/v; pH 7.0). For A2PE-H2 purification, the water content was reduced to 2.5% for better resolution of fatty acyl esters. Spectra for the eluted peaks were corrected by subtracting the nearest integrated baseline to remove solvent absorption. A2-E, phosphatidylethanolamine, and all-trans-RAL were quantitated by comparing the sample peak-area to a calibration curve constructed with authentic standards (18:0-22:6 for the phosphatidylethanolamine standard) (Birnbach et al., 1994). […] In Table 6, APE and protonated-APE were quantitated using published molar extinction coefficients (Anderson et al., 1996).
Three-month-old abcr−/− mice were treated with isotretinoin (13 cis retinoic acid) for one month.

mice [4] = assay: Photoreceptor degeneration by histologic or electroretinographic (ERG) analysis after prolonged isotretinoin treatment; type: in vivo, mouse; settings: prolonged treatment at doses up to 50 mg/kg/day (25× the maximum human dose)
Excerpt: (§1) Long delays in 11cRAL regeneration are also observed after a photobleach in mice treated with isotretinoin. This alteration in the retinoid profile is similar to the pattern in 11cRDH knockout-mice (Driessen et al., 2000).

[5] = humans; cited from earlier work
[6] = Isotretinoin in retina and RPE by HPLC analysis after intraperitoneal injection
humans = settings: clinical use for acne; due to impaired regeneration of rhodopsin; cited from earlier work
mice [7] = settings: Yuschak et al., 1993; cited from earlier work
wild-type mice = assay: Retinoid profile after intraperitoneal injection of isotretinoin into light-adapted wild-type mice; type: in vivo, mouse
Excerpt: as §1

11cRDH = settings: Law et al., 1989, Gamble et al., 1999, cited from earlier work
[8] = tested on: patients with retinitis pigmentosa (RP) and related retinal degenerations; settings: supplemental lutein; Dagnelie et al., 2000; cited from earlier work
rodent model = settings: cited from earlier work
[9] = light-adapted wild-type mice, intraperitoneal injection

verteporfin
risk of moderate and severe vision loss ([1]; at one year, reduced from 61%): 33% | risk of moderate and severe vision loss ([1]; at two years, reduced from 69%): 41%

CC1=C(/C=C/C(C)=C/C=C/C(C)=C/COC(=O)CBr)C(C)(C)CCC1 [tRBA, all-trans-retinyl α-bromoacetate]
formation of [3H]11cRE from added [3H]11cROL [2]: completely inhibited | formation of atRE and 11cROL from added [3H]atROL [2]: completely suppressed | formation of [3H]11cROL or [3H]11cRE from added [3H]atROL [3]: no effect | formation of [3H]atRE from added [3H]atROL [3]: completely suppressed | inhibition of LRAT (LRAT): potent inhibitor

CC1=C(/C=C/C(C)=C/C=C\C(C)=C/COC(=O)CBr)C(C)(C)CCC1 [cRBA, 11-cis-retinyl α-bromoacetate]
formation of [3H]11cRE from added [3H]11cROL [2]: suppressed | formation of atRE and 11cROL from added [3H]atROL [2]: no effect | synthesis of [3H]11cRE [3]: no effect

CC1=C(/C=C/C(C)=C/C=C/C(C)=C\C(=O)O)C(C)(C)CCC1 [isotretinoin, 13-cis-retinoic acid]
suppression of A2E accumulation in RPE (abcr−/− mice; abcr−/− mice, isotretinoin 40 mg/kg/day for one month, FIG. 7A): approximately two-fold | suppression of A2PE-H2 accumulation in RPE (abcr−/− mice; abcr−/− mice, isotretinoin 40 mg/kg/day for one month, FIG. 7B): approximately three-fold | A2PE-H2 in retina (abcr−/− mice; four-month-old abcr−/− mice after one month of isotretinoin, FIG. 7C): near absence; also recorded: virtually undetectable | A2E in RPE, level relative to sham-treated (DMSO) controls (abcr−/− mice; four-month-old abcr−/− mice treated for one month with isotretinoin at 40 mg/kg/day): approximately 50% | photoreceptor degeneration by histologic or electroretinographic (ERG) analysis (mice [4]): No photoreceptor degeneration | serum half-life [5]: 10 to 20 h | detection in retina and RPE ([6]; five minutes following an intraperitoneal injection): detected | tissue concentrations ([6]; one hour following a single injection at 4 mg/kg): micromolar range | side effect night blindness (humans): common side effect | tolerated dose (mice [7]): up to 400 mg/kg/day | 11cRAL and atRAL in outer segments (wild-type mice; [9]): Profound depletion | 11cRE in RPE cells (wild-type mice; [9]): accumulation | 11cRAL regeneration after a photobleach (wild-type mice; mice treated with isotretinoin): Long delays | inhibition of 11cRDH in RPE (11cRDH): potent inhibitor | inhibition of 11cRDH in RPE (11cRDH; listed as Isotretinoin): inhibit 11cRDH

CC1=C[C@H](O)CC(C)(C)[C@H]1/C=C/C(C)=C/C=C/C(C)=C/C=C/C=C(C)/C=C/C=C(C)/C=C/C1=C(C)C[C@@H](O)CC1(C)C [lutein]
effect on vision [8]: short term improvements in vision

B1: Glial Derived Neurotrophic Factor: a survival factor which has slowed degeneration in a rodent model (protein, UniProt P39905 78-211, looked up)
Glial cell line-derived …: SPDKQMAVLPRRERNRQAAAANPENSRGKGRRGQRGKNRGCVLTAIHLNVTDLGLGYETKEELIFRYCSGSCDAAETTYDKILKNLSRNRRLVSDKVGQACCRPIAFDDDLSFLDDNLVYHILRKHSAKRCGCI
effect on retinal degeneration (rodent model): slowed degeneration
